Data published in patent publication US6005007A, “Retinoids, methods for their production and use” (priority 1997, dated 1999).

Legend:
RARβ [1] = target: T1, RARβ (Homo sapiens, UniProt P10826); experiment: Receptor binding, RARβ; details: tritiated retinoid competition
T1 sequence (P10826 1-448 isoform P10826-2): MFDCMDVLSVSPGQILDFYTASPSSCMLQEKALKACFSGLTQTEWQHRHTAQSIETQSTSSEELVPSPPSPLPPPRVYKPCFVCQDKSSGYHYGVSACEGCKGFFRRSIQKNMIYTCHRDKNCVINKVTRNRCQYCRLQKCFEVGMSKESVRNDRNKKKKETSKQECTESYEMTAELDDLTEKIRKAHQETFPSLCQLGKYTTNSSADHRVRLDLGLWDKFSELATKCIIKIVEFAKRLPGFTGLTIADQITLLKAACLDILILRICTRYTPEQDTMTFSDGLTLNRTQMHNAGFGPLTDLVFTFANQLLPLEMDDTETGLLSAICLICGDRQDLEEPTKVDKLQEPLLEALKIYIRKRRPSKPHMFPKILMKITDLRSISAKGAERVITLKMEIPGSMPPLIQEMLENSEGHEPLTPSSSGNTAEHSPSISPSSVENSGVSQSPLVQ

RXRγ [2] = target: T2, RXRγ (Mus musculus, UniProt P28705); experiment: Receptor binding, RXRγ; details: tritiated retinoid competition
T2 construct: expressed in transfected cells; host or cells: CV-1 (African green monkey kidney fibroblasts)
T2 sequence (P28705 1-463): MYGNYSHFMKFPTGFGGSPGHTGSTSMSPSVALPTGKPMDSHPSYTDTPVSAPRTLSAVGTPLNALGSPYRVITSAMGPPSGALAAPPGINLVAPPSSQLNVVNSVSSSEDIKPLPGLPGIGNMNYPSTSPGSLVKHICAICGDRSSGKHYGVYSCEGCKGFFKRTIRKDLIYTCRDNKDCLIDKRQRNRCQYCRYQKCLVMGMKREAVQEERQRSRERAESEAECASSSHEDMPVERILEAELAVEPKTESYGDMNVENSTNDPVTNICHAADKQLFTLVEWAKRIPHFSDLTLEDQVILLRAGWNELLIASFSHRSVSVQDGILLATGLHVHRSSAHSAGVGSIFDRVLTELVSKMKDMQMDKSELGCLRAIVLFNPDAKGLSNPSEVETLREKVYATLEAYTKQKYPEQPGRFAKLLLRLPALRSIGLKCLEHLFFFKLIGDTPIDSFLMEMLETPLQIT

RARα [3] = target: T3, RARα (Homo sapiens, UniProt P10276); experiment: Receptor binding, RARα; details: tritiated retinoid competition
T3 sequence (P10276 1-462): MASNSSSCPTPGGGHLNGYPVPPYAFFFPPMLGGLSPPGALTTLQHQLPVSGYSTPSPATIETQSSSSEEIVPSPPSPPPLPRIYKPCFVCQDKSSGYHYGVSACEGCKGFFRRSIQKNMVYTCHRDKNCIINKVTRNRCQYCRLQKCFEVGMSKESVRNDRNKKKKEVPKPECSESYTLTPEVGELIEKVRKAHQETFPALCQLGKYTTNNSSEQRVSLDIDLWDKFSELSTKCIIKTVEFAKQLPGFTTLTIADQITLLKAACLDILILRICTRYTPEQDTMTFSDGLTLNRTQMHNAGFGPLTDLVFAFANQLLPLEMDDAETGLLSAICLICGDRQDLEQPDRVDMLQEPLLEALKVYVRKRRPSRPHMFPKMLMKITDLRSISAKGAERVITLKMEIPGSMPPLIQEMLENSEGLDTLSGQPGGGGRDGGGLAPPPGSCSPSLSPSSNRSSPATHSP

RXRβ = target: T4, RXRβ (Mus musculus, UniProt P28704); experiment: Receptor binding, RXRβ; details: tritiated retinoid competition
T4 sequence (P28704 1-520): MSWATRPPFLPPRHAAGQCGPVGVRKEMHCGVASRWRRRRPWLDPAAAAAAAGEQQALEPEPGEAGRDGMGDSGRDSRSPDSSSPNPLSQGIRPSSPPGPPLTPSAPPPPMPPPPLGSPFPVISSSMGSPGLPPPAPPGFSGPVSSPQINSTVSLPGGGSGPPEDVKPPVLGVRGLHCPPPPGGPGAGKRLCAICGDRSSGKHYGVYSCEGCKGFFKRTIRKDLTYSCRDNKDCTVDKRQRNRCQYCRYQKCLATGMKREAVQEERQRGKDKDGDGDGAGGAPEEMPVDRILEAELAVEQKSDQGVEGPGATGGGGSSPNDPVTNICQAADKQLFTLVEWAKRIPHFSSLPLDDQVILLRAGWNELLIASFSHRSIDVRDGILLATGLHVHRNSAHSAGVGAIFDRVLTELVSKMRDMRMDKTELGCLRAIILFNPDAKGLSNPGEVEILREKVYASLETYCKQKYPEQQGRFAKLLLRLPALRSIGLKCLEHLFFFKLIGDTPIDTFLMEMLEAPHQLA

RXRγ [4] = target: T2, RXRγ; experiment: Co-transfection assay, RXRγ agonist activity; assay type: cell-based; details: CV-1 cells, luciferase reporter, read-out: RXRγ Pot
RARα [5] = target: T3, RARα; experiment: Co-transfection assay, RARα agonist activity; assay type: cell-based; parameters: expressed in transfected cells; host or cells: CV-1 (African green monkey kidney fibroblasts); details: CV-1 cells, luciferase reporter, read-out: RARα Pot
RARγ = target: T5, RARγ (Homo sapiens, UniProt P13631); experiment: Receptor binding, RARγ; details: tritiated retinoid competition
T5 sequence (P13631 1-454): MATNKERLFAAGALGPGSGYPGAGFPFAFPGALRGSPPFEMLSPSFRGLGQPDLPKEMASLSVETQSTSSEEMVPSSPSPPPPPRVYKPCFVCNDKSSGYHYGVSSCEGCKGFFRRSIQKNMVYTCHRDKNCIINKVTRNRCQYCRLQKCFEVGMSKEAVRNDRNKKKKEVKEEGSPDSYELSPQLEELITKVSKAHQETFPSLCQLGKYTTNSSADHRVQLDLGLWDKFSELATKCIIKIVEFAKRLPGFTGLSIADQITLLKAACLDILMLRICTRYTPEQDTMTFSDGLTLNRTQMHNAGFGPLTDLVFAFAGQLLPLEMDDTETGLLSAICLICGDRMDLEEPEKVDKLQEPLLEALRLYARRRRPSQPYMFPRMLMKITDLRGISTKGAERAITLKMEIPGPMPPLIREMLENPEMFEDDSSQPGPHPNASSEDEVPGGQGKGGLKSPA

RARβ [6] = target: T1, RARβ; experiment: Co-transfection assay, RARβ agonist activity; assay type: cell-based; parameters: expressed in transfected cells; host or cells: CV-1 (African green monkey kidney fibroblasts); details: CV-1 cells, luciferase reporter, read-out: RARβ Pot

Kd (RARβ [1])	Kd (RXRγ [2])	Kd (RARα [3])	Kd (RXRβ)	EC50 (RXRγ [4])	EC50 (RARα [5])	Kd (RARγ)	EC50 (RARβ [6])	SMILES
463 nM	8 nM	644 nM	6 nM	14 nM	59 nM	552 nM	17 nM	CC(/C=C/CC1(c2ccc3c(c2)C(C)(C)CCC3(C)C)CC1)=C\C(=O)O [Compound 101, (2E, 4E)-6-[1-(5,5,8,8-Tetramethyl-5,6,7,8-tetrahydronaphtha-len-2-yl)cyclopropanyl]-3-methyl hexadienoic acid]
> 5000 nM	22 nM	> 5000 nM	15 nM	20 nM	> 10000 nM	> 5000 nM	> 10000 nM	CC(/C=C/CC1(c2cc(C(C)(C)C)cc3c2CCC3(C)C)CC1)=C\C(=O)O [Compound 107, (2E, 4E)-6-[1-(6-t-butyl-1,1-dimethyl-indan-4-yl)-cyclopropyl]-3-methyl hexadienoic acid]
> 5000 nM	128 nM	> 5000 nM	357 nM	66 nM	> 10000 nM	> 5000 nM	> 10000 nM	CC(/C=C/CC1(c2ccc3c(c2)C(C)(C)CCC3(C)C)CCCC1)=C\C(=O)O [Compound 108, (2E, 4E)-6-[(5,5,8,8-Tetramethyl-5,6,7,8-tetrahydronaphtha-len-2-yl)cyclopentane-1-yl]-3-methyl hexadienoic acid]
